Experimental data: ChEMBL document CHEMBL1201861, “Genomics of Drug Sensitity in Cancer screening data, Wellcome Trust Sanger Institute”
Counter-ions that a name gives are not always drawn.

What was measured:
Test in all cases: cells
Format in all cases: functional, cell-based, Homo sapiens
CW-2 = settings: Homo sapiens, CW-2;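 also: growth inhibition of CW-2 cells, read out by a cell viability assay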
Description: SANGER: Inhibition of human CW-2 cell growth in a cell viability assay.

EC-GI-10 = settings: Homo sapiens, EC-GI-10
Description: SANGER: Inhibition of human EC-GI-10 cell growth in a cell viability assay.

ES4 = settings: Homo sapiens, ES4;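 also: growth inhibition of human ES4 cells, read out by a cell viability assay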
Description: SANGER: Inhibition of human ES4 cell growth in a cell viability assay.

ES5 = settings: Homo sapiens, ES5;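 also: growth inhibition of human ES5 cells, read out by a cell viability assay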
Description: SANGER: Inhibition of human ES5 cell growth in a cell viability assay.

ES6 = settings: Homo sapiens, ES6;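 also: growth inhibition of human ES6 cells, read out with a cell viability assay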
Description: SANGER: Inhibition of human ES6 cell growth in a cell viability assay.

ES7 = settings: Homo sapiens, ES7;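 also: growth inhibition of cultured human ES7 cells, read out as cell viability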
Description: SANGER: Inhibition of human ES7 cell growth in a cell viability assay.

GI-ME-N = settings: Homo sapiens, GI-ME-N;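 also: growth inhibition of human GI-ME-N cells, read out with a cell viability assay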
Description: SANGER: Inhibition of human GI-ME-N cell growth in a cell viability assay.

JVM-2 = settings: Homo sapiens, JVM-2;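 also: growth inhibition of JVM-2 cells determined by a cell viability assay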
Description: SANGER: Inhibition of human JVM-2 cell growth in a cell viability assay.

JVM-3 = settings: Homo sapiens, JVM-3;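 also: growth inhibition of human JVM-3 cells, read out with a cell viability assay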
Description: SANGER: Inhibition of human JVM-3 cell growth in a cell viability assay.

K562 = settings: Homo sapiens, K562
Description: SANGER: Inhibition of human K-562 cell growth in a cell viability assay.

KALS-1 = settings: Homo sapiens, KALS-1;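 also: growth inhibition of KALS-1 cells, determined with a cell viability assay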
Description: SANGER: Inhibition of human KALS-1 cell growth in a cell viability assay.

KARPAS-299 = settings: Homo sapiens, KARPAS-299
Description: SANGER: Inhibition of human KARPAS-299 cell growth in a cell viability assay.

KARPAS-45 = settings: Homo sapiens, KARPAS-45;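 also: inhibition of cell line growth, read out through a viability assay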
Description: SANGER: Inhibition of human KARPAS-45 cell growth in a cell viability assay.

KE-37 = settings: Homo sapiens, KE-37;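 also: growth inhibition of KE-37 cells, read out with a cell viability assay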
Description: SANGER: Inhibition of human KE-37 cell growth in a cell viability assay.

KG-1 = settings: Homo sapiens, KG-1;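 also: growth inhibition of KG-1 cells, read out by a cell viability assay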
Description: SANGER: Inhibition of human KG-1 cell growth in a cell viability assay.

KGN = settings: Homo sapiens, KGN;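 also: growth inhibition of KGN cells, read out with a cell viability assay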
Description: SANGER: Inhibition of human KGN cell growth in a cell viability assay.

KINGS-1 = settings: Homo sapiens, KINGS-1;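 also: cell viability assay measuring suppression of KINGS-1 cell growth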
Description: SANGER: Inhibition of human KINGS-1 cell growth in a cell viability assay.

KY821 = settings: Homo sapiens, KY821;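 also: growth inhibition of human KY821 cells, read out by a cell viability assay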
Description: SANGER: Inhibition of human KY821 cell growth in a cell viability assay.

LB373-MEL-D = settings: Homo sapiens, LB373-MEL-D;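 also: growth inhibition of the cell line, read out in a cell viability assay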
Description: SANGER: Inhibition of human LB373-MEL-D cell growth in a cell viability assay.

LB831-BLC = settings: Homo sapiens, LB831-BLC;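 also: growth inhibition of LB831-BLC cells, read out with a cell viability assay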
Description: SANGER: Inhibition of human LB831-BLC cell growth in a cell viability assay.

LC-2-ad = settings: Homo sapiens, LC-2-ad;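 also: growth inhibition of human LC-2-ad cells, read out with a cell viability assay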
Description: SANGER: Inhibition of human LC-2-ad cell growth in a cell viability assay.

LS-411N = settings: Homo sapiens, LS-411N
LS-513 = settings: Homo sapiens, LS-513
Description: SANGER: Inhibition of human LS-513 cell growth in a cell viability assay.

Lu-65 = settings: Homo sapiens, Lu-65;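 also: growth inhibition of Lu-65 cancer cells, read out by a cell viability assay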
Description: SANGER: Inhibition of human LU-65 cell growth in a cell viability assay.

MOLT-16 = settings: Homo sapiens, MOLT-16;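 also: growth inhibition of human MOLT-16 cells, read out with a cell viability assay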
Description: SANGER: Inhibition of human MOLT-16 cell growth in a cell viability assay.

MZ2-MEL = settings: Homo sapiens, MZ2-MEL;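 also: growth inhibition of MZ2-MEL cells read out with a cell viability assay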
Description: SANGER: Inhibition of human MZ2-MEL cell growth in a cell viability assay.

NB10 = settings: Homo sapiens, NB10;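 also: growth inhibition of NB10 cells, read out by a cell viability assay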
Description: SANGER: Inhibition of human NB10 cell growth in a cell viability assay.

NCI-H1581 = settings: Homo sapiens, NCI-H1581;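 also: cell growth inhibition read out by a viability assay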
Description: SANGER: Inhibition of human NCI-H1581 cell growth in a cell viability assay.

NCI-H1648 = settings: Homo sapiens, NCI-H1648;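 also: cell viability assay measuring inhibition of NCI-H1648 cell growth, from the Sanger screening data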
Description: SANGER: Inhibition of human NCI-H1648 cell growth in a cell viability assay.

NCI-H1650 = settings: Homo sapiens, NCI-H1650;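 also: growth inhibition of human NCI-H1650 cells measured by a cell viability assay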
Description: SANGER: Inhibition of human NCI-H1650 cell growth in a cell viability assay.

NCI-H446 = settings: Homo sapiens, NCI-H446;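 also: growth inhibition of NCI-H446 cells determined by a cell viability assay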
Description: SANGER: Inhibition of human NCI-H446 cell growth in a cell viability assay.

NCI-N87 = settings: Homo sapiens, NCI-N87;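 also: growth inhibition of human NCI-N87 cells, read out with a cell viability assay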
Description: SANGER: Inhibition of human NCI-N87 cell growth in a cell viability assay.

NEC8 = settings: Homo sapiens, NEC8;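 also: growth inhibition of human NEC8 cells, read out by a cell viability assay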
Description: SANGER: Inhibition of human NEC8 cell growth in a cell viability assay.

NMC-G1 = settings: Homo sapiens, NMC-G1;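 also: growth inhibition of the NMC-G1 cell line, measured with a cell viability read-out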
Description: SANGER: Inhibition of human NMC-G1 cell growth in a cell viability assay.

NOMO-1 = settings: Homo sapiens, NOMO-1;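 also: growth inhibition of human NOMO-1 cells measured by a cell viability assay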
Description: SANGER: Inhibition of human NOMO-1 cell growth in a cell viability assay.

NOS-1 = settings: Homo sapiens, NOS-1;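 also: growth inhibition of the human NOS-1 cell line, read out with a cell viability assay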
Description: SANGER: Inhibition of human NOS-1 cell growth in a cell viability assay.

P30-OHK = settings: Homo sapiens, P30-OHK;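 also: growth inhibition of the P30-OHK cell line, read out with a cell viability assay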
Description: SANGER: Inhibition of human P30-OHK cell growth in a cell viability assay.

PSN1 = settings: Homo sapiens, PSN1;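 also: suppression of growth of human PSN1 cells, read out by a cell viability assay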
Description: SANGER: Inhibition of human PSN1 cell growth in a cell viability assay.

RKO = settings: Homo sapiens, RKO;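 also: growth inhibition of human RKO cells, read out with a cell viability assay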
Description: SANGER: Inhibition of human RKO cell growth in a cell viability assay.

RPMI-8226 = settings: Homo sapiens, RPMI-8226
Description: SANGER: Inhibition of human RPMI-8226 cell growth in a cell viability assay.

SBC-1 = settings: Homo sapiens, SBC-1;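 also: cell viability assay measuring growth inhibition of the SBC-1 cell line, IC50 being the concentration that halves growth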
Description: SANGER: Inhibition of human SBC-1 cell growth in a cell viability assay.

SCH = settings: Homo sapiens, SCH;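 also: growth inhibition of human SCH cells, read out in a cell viability assay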
Description: SANGER: Inhibition of human SCH cell growth in a cell viability assay.

SW684 = settings: Homo sapiens, SW684;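 also: growth inhibition of human SW684 cells, measured by a cell viability assay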
Description: SANGER: Inhibition of human SW684 cell growth in a cell viability assay.

SW872 = settings: Homo sapiens, SW872;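 also: growth inhibition of SW872 cells, read out by a viability assay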
Description: SANGER: Inhibition of human SW872 cell growth in a cell viability assay.

A101D = settings: Homo sapiens, A101D;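 also: growth inhibition of the cell line, measured with a viability assay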
Description: SANGER: Inhibition of human A101D cell growth in a cell viability assay.

ACN = settings: Homo sapiens, ACN;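 also: growth inhibition of the human ACN cell line, read out via cell viability testing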
Description: SANGER: Inhibition of human ACN cell growth in a cell viability assay.

BT-474 = settings: Homo sapiens, BT-474
Description: SANGER: Inhibition of human BT-474 cell growth in a cell viability assay.

TE-10 = settings: Homo sapiens, TE-10;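 also: growth inhibition of TE-10 cells, measured by a cell viability assay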
Description: SANGER: Inhibition of human TE-10 cell growth in a cell viability assay.

TE-11 = settings: Homo sapiens, TE-11;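 also: growth inhibition of human TE-11 cells, read out by a cell viability assay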
Description: SANGER: Inhibition of human TE-11 cell growth in a cell viability assay.

TK-10 = settings: Homo sapiens, TK-10;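 also: growth inhibition of TK-10 cells, read out in a cell viability assay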
Description: SANGER: Inhibition of human TK10 cell growth in a cell viability assay.

Nc1cccc2c1CN(C1CCC(=O)NC1=O)C2=O (stereo not given) [LENALIDOMIDE]
IC50 (CW-2): > 5000 nM | IC50 (EC-GI-10): > 5000 nM | IC50 (ES4): > 5000 nM | IC50 (ES5): > 5000 nM | IC50 (ES6): > 5000 nM | IC50 (ES7): > 5000 nM | IC50 (GI-ME-N): > 5000 nM | IC50 (JVM-2): > 5000 nM | IC50 (JVM-3): > 5000 nM | IC50 (K562): > 5000 nM | IC50 (KALS-1): > 5000 nM | IC50 (KARPAS-299): > 5000 nM | IC50 (KARPAS-45): > 5000 nM | IC50 (KE-37): > 5000 nM | IC50 (KG-1): > 5000 nM | IC50 (KGN): > 5000 nM | IC50 (KINGS-1): > 5000 nM | IC50 (KY821): > 5000 nM | IC50 (LB373-MEL-D): > 5000 nM | IC50 (LB831-BLC): > 5000 nM | IC50 (LC-2-ad): > 5000 nM | IC50 (LS-411N): > 5000 nM | IC50 (LS-513): > 5000 nM | IC50 (Lu-65): > 5000 nM | IC50 (MOLT-16): > 5000 nM | IC50 (MZ2-MEL): > 5000 nM | IC50 (NB10): > 5000 nM | IC50 (NCI-H1581): > 5000 nM | IC50 (NCI-H1648): > 5000 nM | IC50 (NCI-H1650): > 5000 nM | IC50 (NCI-H446): > 5000 nM | IC50 (NCI-N87): > 5000 nM | IC50 (NEC8): > 5000 nM | IC50 (NMC-G1): > 5000 nM | IC50 (NOMO-1): > 5000 nM | IC50 (NOS-1): > 5000 nM | IC50 (P30-OHK): > 5000 nM | IC50 (PSN1): > 5000 nM | IC50 (RKO): > 5000 nM | IC50 (RPMI-8226): > 5000 nM | IC50 (SBC-1): > 5000 nM | IC50 (SCH): > 5000 nM | IC50 (SW684): > 5000 nM | IC50 (SW872): > 5000 nM | IC50 (A101D): > 5000 nM | IC50 (ACN): > 5000 nM | IC50 (BT-474): > 5000 nM | IC50 (TE-10): > 5000 nM | IC50 (TE-11): > 5000 nM | IC50 (TK-10): > 5000 nM

Cc1cn(-c2cc(NC(=O)c3ccc(C)c(Nc4nccc(-c5cccnc5)n4)c3)cc(C(F)(F)F)c2)cn1 [NILOTINIB]
IC50 (CW-2): > 2000 nM | IC50 (EC-GI-10): > 2000 nM | IC50 (ES4): > 2000 nM | IC50 (ES5): > 2000 nM | IC50 (ES6): > 2000 nM | IC50 (ES7): > 2000 nM | IC50 (GI-ME-N): > 2000 nM | IC50 (JVM-2): > 2000 nM | IC50 (JVM-3): > 2000 nM | IC50 (K562): > 2000 nM | IC50 (KALS-1): > 2000 nM | IC50 (KARPAS-299): > 2000 nM | IC50 (KARPAS-45): > 2000 nM | IC50 (KE-37): > 2000 nM | IC50 (KG-1): > 2000 nM | IC50 (KGN): > 2000 nM | IC50 (KINGS-1): > 2000 nM | IC50 (KY821): > 2000 nM | IC50 (LB373-MEL-D): > 2000 nM | IC50 (LB831-BLC): > 2000 nM | IC50 (LC-2-ad): > 2000 nM | IC50 (LS-411N): > 2000 nM | IC50 (LS-513): > 2000 nM | IC50 (Lu-65): > 2000 nM | IC50 (MOLT-16): > 2000 nM | IC50 (MZ2-MEL): > 2000 nM | IC50 (NB10): > 2000 nM | IC50 (NCI-H1581): > 2000 nM | IC50 (NCI-H1648): > 2000 nM | IC50 (NCI-H1650): > 2000 nM | IC50 (NCI-H446): > 2000 nM | IC50 (NCI-N87): > 2000 nM | IC50 (NEC8): > 2000 nM | IC50 (NMC-G1): > 2000 nM | IC50 (NOMO-1): > 2000 nM | IC50 (NOS-1): > 2000 nM | IC50 (P30-OHK): > 2000 nM | IC50 (PSN1): > 2000 nM | IC50 (RKO): > 2000 nM | IC50 (RPMI-8226): > 2000 nM | IC50 (SBC-1): > 2000 nM | IC50 (SCH): > 2000 nM | IC50 (SW684): > 2000 nM | IC50 (SW872): > 2000 nM | IC50 (A101D): > 2000 nM | IC50 (ACN): 1550 nM | IC50 (BT-474): > 2000 nM | IC50 (TE-10): > 2000 nM | IC50 (TE-11): > 2000 nM | IC50 (TK-10): > 2000 nM

COC1=CC(c2cc3ccccc3[nH]2)=N/C1=C\c1[nH]c(C)cc1C [OBATOCLAX MESYLATE]
IC50 (CW-2): > 16000 nM | IC50 (EC-GI-10): > 16000 nM | IC50 (ES4): 103 nM | IC50 (ES5): 605 nM | IC50 (ES6): 144 nM | IC50 (ES7): < 62.5 nM | IC50 (GI-ME-N): 5010 nM | IC50 (JVM-2): 3940 nM | IC50 (JVM-3): > 16000 nM | IC50 (K562): 1670 nM | IC50 (KALS-1): 600 nM | IC50 (KARPAS-299): > 16000 nM | IC50 (KARPAS-45): < 62.5 nM | IC50 (KE-37): < 62.5 nM | IC50 (KG-1): 334 nM | IC50 (KGN): 261 nM | IC50 (KINGS-1): 826 nM | IC50 (KY821): > 16000 nM | IC50 (LB373-MEL-D): 42.3 nM | IC50 (LB831-BLC): 444 nM | IC50 (LC-2-ad): 15.8 nM | IC50 (LS-411N): 143 nM | IC50 (LS-513): > 16000 nM | IC50 (Lu-65): 1090 nM | IC50 (MOLT-16): 1730 nM | IC50 (MZ2-MEL): 29.6 nM | IC50 (NB10): 2820 nM | IC50 (NCI-H1581): 2320 nM | IC50 (NCI-H1648): 113 nM | IC50 (NCI-H1650): 3780 nM | IC50 (NCI-H446): 950 nM | IC50 (NCI-N87): 4390 nM | IC50 (NEC8): 55.9 nM | IC50 (NMC-G1): 319 nM | IC50 (NOMO-1): 564 nM | IC50 (NOS-1): 64.1 nM | IC50 (P30-OHK): 240 nM | IC50 (PSN1): < 62.5 nM | IC50 (RKO): < 62.5 nM | IC50 (RPMI-8226): 316 nM | IC50 (SBC-1): 3090 nM | IC50 (SCH): > 16000 nM | IC50 (SW684): > 16000 nM | IC50 (SW872): 160 nM | IC50 (A101D): 30.5 nM | IC50 (ACN): < 62.5 nM | IC50 (BT-474): 175 nM | IC50 (TE-10): 95.8 nM | IC50 (TE-11): 302 nM | IC50 (TK-10): 177 nM

CO[C@H]1C[C@@H]2CC[C@@H](C)[C@@](O)(O2)C(=O)C(=O)N2CCCC[C@H]2C(=O)O[C@H]([C@H](C)C[C@@H]2CC[C@@H](OC(=O)C(C)(CO)CO)[C@H](OC)C2)CC(=O)[C@H](C)/C=C(\C)[C@@H](O)[C@@H](OC)C(=O)[C@H](C)C[C@H](C)/C=C/C=C/C=C/1C [TEMSIROLIMUS]
IC50 (CW-2): > 200 nM | IC50 (EC-GI-10): > 200 nM | IC50 (ES4): 37.8 nM | IC50 (ES5): 61.4 nM | IC50 (ES6): > 200 nM | IC50 (ES7): 85.9 nM | IC50 (GI-ME-N): > 200 nM | IC50 (JVM-2): > 200 nM | IC50 (JVM-3): 3.95 nM | IC50 (K562): > 200 nM | IC50 (KALS-1): 149 nM | IC50 (KARPAS-299): > 200 nM | IC50 (KARPAS-45): 51.3 nM | IC50 (KE-37): 16.5 nM | IC50 (KG-1): 12.9 nM | IC50 (KGN): > 200 nM | IC50 (KINGS-1): > 200 nM | IC50 (KY821): > 200 nM | IC50 (LB373-MEL-D): > 200 nM | IC50 (LB831-BLC): > 200 nM | IC50 (LC-2-ad): > 200 nM | IC50 (LS-411N): > 200 nM | IC50 (LS-513): > 200 nM | IC50 (Lu-65): > 200 nM | IC50 (MOLT-16): 12.8 nM | IC50 (MZ2-MEL): 56.9 nM | IC50 (NB10): > 200 nM | IC50 (NCI-H1581): > 200 nM | IC50 (NCI-H1648): 182 nM | IC50 (NCI-H1650): > 200 nM | IC50 (NCI-H446): > 200 nM | IC50 (NCI-N87): 175 nM | IC50 (NEC8): > 200 nM | IC50 (NMC-G1): > 200 nM | IC50 (NOMO-1): 168 nM | IC50 (NOS-1): > 200 nM | IC50 (P30-OHK): > 200 nM | IC50 (PSN1): > 200 nM | IC50 (RKO): 135 nM | IC50 (RPMI-8226): 4.15 nM | IC50 (SBC-1): 0.444 nM | IC50 (SCH): > 200 nM | IC50 (SW684): > 200 nM | IC50 (SW872): > 200 nM | IC50 (A101D): 48.7 nM | IC50 (ACN): 13 nM | IC50 (BT-474): > 200 nM | IC50 (TE-10): > 200 nM | IC50 (TE-11): > 200 nM | IC50 (TK-10): > 200 nM
